Measured values from US20230081426A1, “COMPOUNDS AND METHODS FOR KRAS MODULATION AND INDICATIONS THEREFOR” (Plexxikon Inc., priority 2020, published 2023).

Key:
[1] = biological target: T1, G12D-mutant human KRAS (amino acid residues 1-188) (Homo sapiens, UniProt P01116, G12D); assay: KRAS Binding Disruption Assay (AlphaScreen; biotinylated KRpep-2d analogue or RAF1-RBD), G12D; conditions: KRAS G12D; geometric mean; read-out: KRAS GMean IC50 (uM) MUTATION: G12D
T1 construct: G12D or G12C-mutant human KRAS (amino acid residues 1-188) with FLAG tag; made in house; host or cells: E. coli
How it was run: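 AlphaScreen readout: signal falls as compound displaces biotinylated KRpep-2d analogue or RAF1-RBD from mutant KRAS. Both partners at 5-20 nM, 1 h binding at 25° C, then 10 μg/mL Anti-Flag acceptor and streptavidin donor beads for 1 h. IC50 by nonlinear regression of % inhibition.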

[2] = biological target: T2, G12V-mutant human KRAS (amino acid residues 1-188) (Homo sapiens, UniProt P01116, G12V); assay: KRAS Binding Competition Assay (AlphaScreen; biotinylated KRpep-2d analogue), G12V; conditions: geometric mean, read-out: KRAS GMean IC50 (uM) MUTATION: G12V
T2 construct: G12V-mutant human KRAS (amino acid residues 1-188) with FLAG tag was purified from E. coli; made in house; host or cells: E. coli

SMILES	IC50 [1]	IC50 [2]
CN1CCC[C@H]1COc1nc(N2CC3COCC(C2)N3C(=O)CC2SC(=O)NC2=O)c2cc(Cl)c(-c3cc(O)cc4ccccc34)c(F)c2n1 (stereo partly drawn) [P-0358, 5-(2-(7-(6-chloro-8-fluoro-7-(3-hydroxynaphthalen-1-yl)-2-(((S)-1-methylpyrrolidin-2-yl)methoxy)quinazolin-4-yl)-3-oxa-7,9-diazabicyclo[3.3.1]nonan-9-yl)-2-oxoethyl)thiazolidine-2,4-dione]	0.0001 to 10 µM	0.0001 to 10 µM
Cc1cccc2c1N(c1ccc3c(N4C[C@H]5CC[C@@H](C4)N5)nc(OC[C@@H]4CCCN4C)nc3c1F)CC(O)C2 (stereo partly drawn) [P-0360, 1-(4-((1R,5S)-3,8-diazabicyclo[3.2.1]octan-3-yl)-8-fluoro-2-(((S)-1-methylpyrrolidin-2-yl)methoxy)quinazolin-7-yl)-8-methyl-1,2,3,4-tetrahydroquinolin-3-ol]	0.0001 to 10 µM	10 to 100 µM
CN(C)c1ccc(Oc2nc(N3C[C@H]4CC[C@@H](C3)N4)c3cc(Cl)c(-c4c(O)cccc4F)c(F)c3n2)cc1 [P-0361, 2-(4-((1R,5S)-3,8-diazabicyclo[3.2.1]octan-3-yl)-6-chloro-2-(4-(dimethylamino)phenoxy)-8-fluoroquinazolin-7-yl)-3-fluorophenol]	0.0001 to 10 µM	0.0001 to 10 µM
CN(C)c1cccc(/C=C/c2nc(N3C[C@H]4CC[C@@H](C3)N4)c3cc(Cl)c(-c4c(O)cccc4F)c(F)c3n2)c1 [P-0362, 2-(4-((1R,5S)-3,8-diazabicyclo[3.2.1]octan-3-yl)-6-chloro-2-((E)-3-(dimethylamino)styryl)-8-fluoroquinazolin-7-yl)-3-fluorophenol]	0.0001 to 10 µM	0.0001 to 10 µM
CN(C)c1cccc(CCc2nc(N3C[C@H]4CC[C@@H](C3)N4)c3cc(Cl)c(-c4c(O)cccc4F)c(F)c3n2)c1 [P-0363, 2-(4-((1R,5S)-3,8-diazabicyclo[3.2.1]octan-3-yl)-6-chloro-2-(3-(dimethylamino)phenethyl)-8-fluoroquinazolin-7-yl)-3-fluorophenol]	0.0001 to 10 µM	0.0001 to 10 µM
CN(C)c1cccc(COc2nc(N3C[C@H]4CC[C@@H](C3)N4)c3cc(Cl)c(-c4c(O)cccc4F)c(F)c3n2)c1 [P-0364, 2-(4-((1R,5S)-3,8-diazabicyclo[3.2.1]octan-3-yl)-6-chloro-2-((3-(dimethylamino)benzyl)oxy)-8-fluoroquinazolin-7-yl)-3-fluorophenol]	0.0001 to 10 µM	0.0001 to 10 µM
CN1CCC[C@H]1COc1nc(N2C[C@H]3CC[C@@H](C2)N3C(=O)CC#N)c2ccc(-c3cc(O)cc4ccccc34)cc2n1 [P-0368, 3-((1R,5S)-3-(7-(3-hydroxynaphthalen-1-yl)-2-(((S)-1-methylpyrrolidin-2-yl)methoxy)quinazolin-4-yl)-3,8-diazabicyclo[3.2.1]octan-8-yl)-3-oxopropanenitrile]	0.0001 to 10 µM	0.0001 to 10 µM
CN1C(=O)C(CC(=O)N2[C@@H]3CC[C@H]2CN(c2nc(OC[C@@H]4CCCN4C)nc4cc(-c5cc(O)cc6ccccc56)ccc24)C3)N(C)C1=O (stereo partly drawn) [P-0369, 5-(2-((1R,5S)-3-(7-(3-hydroxynaphthalen-1-yl)-2-(((S)-1-methylpyrrolidin-2-yl)methoxy)quinazolin-4-yl)-3,8-diazabicyclo[3.2.1]octan-8-yl)-2-oxoethyl)-1,3-dimethylimidazolidine-2,4-dione]	0.0001 to 10 µM	10 to 100 µM
CN1CCC[C@H]1COc1nc(N2C[C@H]3CC[C@@H](C2)N3C(=O)CC2SC(N)=NC2=O)c2ccc(-c3cc(O)cc4ccccc34)cc2n1 (stereo partly drawn) [P-0370, 2-amino-5-(2-((1R,5S)-3-(7-(3-hydroxynaphthalen-1-yl)-2-(((S)-1-methylpyrrolidin-2-yl)methoxy)quinazolin-4-yl)-3,8-diazabicyclo[3.2.1]octan-8-yl)-2-oxoethyl)thiazol-4(5H)-one]	0.0001 to 10 µM	0.0001 to 10 µM
CN1CCC[C@H]1COc1nc(N2C[C@H]3CC[C@@H](C2)N3C(=O)CC2CCNC2=O)c2ccc(-c3cc(O)cc4ccccc34)cc2n1 (stereo partly drawn) [P-0371, 3-(2-((1R,5S)-3-(7-(3-hydroxynaphthalen-1-yl)-2-(((S)-1-methylpyrrolidin-2-yl)methoxy)quinazolin-4-yl)-3,8-diazabicyclo[3.2.1]octan-8-yl)-2-oxoethyl)pyrrolidin-2-one]	10 to 100 µM	10 to 100 µM
Fc1cc2c(N3C[C@H]4CC[C@@H](C3)N4)nc(OCC34CCCN3CCC4)nc2c(F)c1-c1c[nH]c2ccccc12 [P-0372, 4-((1R,5S)-3,8-diazabicyclo[3.2.1]octan-3-yl)-6,8-difluoro-7-(1H-indol-3-yl)-2-((tetrahydro-1H-pyrrolizin-7a(5H)-yl)methoxy)quinazoline]	0.0001 to 10 µM	10 to 100 µM
Fc1cc2c(N3C[C@H]4CC[C@@H](C3)N4)nc(OCC34CCCN3CCC4)nc2c(F)c1-c1c[nH]c2ccc(Cl)cc12 [P-0373, 4-((1R,5S)-3,8-diazabicyclo[3.2.1]octan-3-yl)-7-(5-chloro-1H-indol-3-yl)-6,8-difluoro-2-((tetrahydro-1H-pyrrolizin-7a(5H)-yl)methoxy)quinazoline]	0.0001 to 10 µM	10 to 100 µM
O=C(Cc1c[nH]c(=O)[nH]c1=O)N1[C@@H]2CC[C@H]1CN(c1nc(OCC34CCCN3CCC4)nc3c(F)c(-c4cc(O)cc5ccccc45)ccc13)C2 [P-0374, 5-(2-((1R,5S)-3-(8-fluoro-7-(3-hydroxynaphthalen-1-yl)-2-((tetrahydro-1H-pyrrolizin-7a(5H)-yl)methoxy)quinazolin-4-yl)-3,8-diazabicyclo[3.2.1]octan-8-yl)-2-oxoethyl)pyrimidine-2,4(1H,3H)-dione]	0.0001 to 10 µM	0.0001 to 10 µM
CN1CC[C@@H](NS(=O)(=O)N2[C@@H]3CC[C@H]2CN(c2nc(OC[C@@H]4CCCN4C)nc4c(F)c(-c5cc(O)cc6ccccc56)ccc24)C3)C1 [P-0376, (1R,5S)-3-(8-fluoro-7-(3-hydroxynaphthalen-1-yl)-2-(((S)-1-methylpyrrolidin-2-yl)methoxy)quinazolin-4-yl)-N-((R)-1-methylpyrrolidin-3-yl)-3,8-diazabicyclo[3.2.1]octane-8-sulfonamide]	0.0001 to 10 µM	0.0001 to 10 µM
CN1CCC[C@H]1COc1nc(N2C[C@H]3CC[C@@H](C2)N3S(=O)(=O)N2CCOC2=O)c2ccc(-c3cc(O)cc4ccccc34)c(F)c2n1 [P-0377, 3-(((1R,5S)-3-(8-fluoro-7-(3-hydroxynaphthalen-1-yl)-2-(((S)-1-methylpyrrolidin-2-yl)methoxy)quinazolin-4-yl)-3,8-diazabicyclo[3.2.1]octan-8-yl)sulfonyl)oxazolidin-2-one]	0.0001 to 10 µM	0.0001 to 10 µM
CN1CCC[C@H]1COc1nc(N2C[C@H]3CC[C@@H](C2)N3)c2ccc(-c3nc(N)cc4ccccc34)c(F)c2n1 [P-0378, 1-(4-((1R,5S)-3,8-diazabicyclo[3.2.1]octan-3-yl)-8-fluoro-2-(((S)-1-methylpyrrolidin-2-yl)methoxy)quinazolin-7-yl)isoquinolin-3-amine]	0.0001 to 10 µM	10 to 100 µM
CN1CCC[C@H]1COc1nc(N2C[C@H]3CC[C@@H](C2)N3)c2ccc(-c3nc(N)cc4cccnc34)c(F)c2n1 [P-0379, 8-(4-((1R,5S)-3,8-diazabicyclo[3.2.1]octan-3-yl)-8-fluoro-2-(((S)-1-methylpyrrolidin-2-yl)methoxy)quinazolin-7-yl)-1,7-naphthyridin-6-amine]	10 to 100 µM	100 to 1000 µM
CN(C)CCCS(=O)(=O)N1[C@@H]2CC[C@H]1CN(c1nc(OC[C@@H]3CCCN3C)nc3c(F)c(-c4cc(O)cc5ccccc45)ccc13)C2 [P-0380, 4-(4-((1R,5S)-8-((3-(dimethylamino)propyl)sulfonyl)-3,8-diazabicyclo[3.2.1]octan-3-yl)-8-fluoro-2-(((S)-1-methylpyrrolidin-2-yl)methoxy)quinazolin-7-yl)naphthalen-2-ol]	0.0001 to 10 µM	10 to 100 µM
Oc1cc(-c2ccc3c(N4C[C@H]5CC[C@@H](C4)N5)nc(N4CC5CCC(C4)N5)nc3c2F)c2ccccc2c1 [P-0381, 4-(4-((1R,5S)-3,8-diazabicyclo[3.2.1]octan-3-yl)-2-(3,8-diazabicyclo[3.2.1]octan-3-yl)-8-fluoroquinazolin-7-yl)naphthalen-2-ol]	0.0001 to 10 µM	100 to 1000 µM
CN1CCC[C@H]1COc1nc(N2C[C@H]3CC[C@@H](C2)N3C(=O)CCn2ccnc2)c2ccc(-c3cc(O)cc4ccccc34)cc2n1 [P-0382, 1-((1R,5S)-3-(7-(3-hydroxynaphthalen-1-yl)-2-(((S)-1-methylpyrrolidin-2-yl)methoxy)quinazolin-4-yl)-3,8-diazabicyclo[3.2.1]octan-8-yl)-3-(1H-imidazol-1-yl)propan-1-one]	0.0001 to 10 µM	0.0001 to 10 µM
CN1CCC[C@H]1COc1nc(N2C[C@H]3CC[C@@H](C2)N3C(=O)CCC#N)c2ccc(-c3cc(O)cc4ccccc34)cc2n1 [P-0383, 4-((1R,5S)-3-(7-(3-hydroxynaphthalen-1-yl)-2-(((S)-1-methylpyrrolidin-2-yl)methoxy)quinazolin-4-yl)-3,8-diazabicyclo[3.2.1]octan-8-yl)-4-oxobutanenitrile]	10 to 100 µM	0.0001 to 10 µM
CN1CCC[C@H]1COc1nc(N2C[C@H]3CC[C@@H](C2)N3)c2ccc(-c3cc(O)c(F)c4ccccc34)cc2n1 [P-0385, 4-(4-((1R,5S)-3,8-diazabicyclo[3.2.1]octan-3-yl)-2-(((S)-1-methylpyrrolidin-2-yl)methoxy)quinazolin-7-yl)-1-fluoronaphthalen-2-ol]	0.0001 to 10 µM	10 to 100 µM
